We go through one compound from PubChem BioAssay (NCI).

The subject of one experiment is P388 leukemia. Put plainly: NCI tumour cell line growth inhibition, 48 h.
The test system of the next experiment is P388/ADR leukemia. Kind of experiment: NCI tumour cell line growth inhibition, 48 h.

Values joined by “and” are separate entries in the source; they are usually repeats but may differ in a detail not shown here. Equal values may be shown once.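 Compound exposure: 48 hours, 5 concentrations, 96-well plates. Abbreviation: GI50, concentration required for 50% inhibition of growth. At the TGI there is no net growth.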

In the case of `O=C(Nc1ccccc1)c1c(O)[nH]c(=S)[nH]c1=O`, in the experiment on P388 leukemia, the GI50 is 67 µM; the TGI was 57.7 µM and > 250 µM. In the experiment on P388/ADR leukemia, the GI50 was 46.9 µM; the TGI was 80.6 µM and 116 µM.
